Assay results: patent US4251516A, “2-Deoxy-3-O-Demethylfortimicins” (Abbott Laboratories, priority 1979, dated 1981)
Structures can show the parent of a compound that is named as a salt. Where two headings read alike, the source gives them in different places.

Experiments:
Test in all cases: two-fold agar dilution MIC, Mueller-Hinton agar
Assay type in all cases: cell-based
Escherichia coli Juhl = settings: read-out: Minimum Inhibitory Concentration
Protocol: (§1) The in vitro antibiotic activities are determined by a two-fold agar dilution method using Mueller-Hinton agar, 10 ml per Petri dish. The agar is inoculated with one loopful (0.001 ml loop) of a 1:10 dilution of a 24 hour broth culture of the indicated test organism and incubated at 37° C. for 24 hours. Appropriate fortimicins are used as control antibiotics. The activities, listed in the following Table I, minimum inhibitory concentrations(MIC) are expressed in mcg/ml.

[1] = tested on: Salmonella typhimurium Ed #9; settings: Salmonella enterica, read-out: Minimum Inhibitory Concentration
Protocol: as §1

[2] = tested on: Staphyloccocus aureus Smith; settings: Staphylococcus aureus, read-out: Minimum Inhibitory Concentration
Protocol: as §1

[3] = tested on: Proteus mirabilis Fin. #9; settings: read-out: Minimum Inhibitory Concentration
Protocol: as §1

[4] = tested on: Streptoccocus faecalis 10541; settings: read-out: Minimum Inhibitory Concentration
Protocol: as §1

[5] = tested on: Klebsiella pneumoniae 10031; settings: read-out: Minimum Inhibitory Concentration
Protocol: as §1

[6] = tested on: Pseudomonas aeruginosa 209; settings: read-out: Minimum Inhibitory Concentration
Protocol: as §1

Providencia 1577 = settings: read-out: Minimum Inhibitory Concentration
Protocol: as §1

Shigella sonnei 9290 = settings: 37° C., 24 hours, read-out: Minimum Inhibitory Concentration
Protocol: as §1

[7] = tested on: Pseudomonas aeruginosa KY 8516; settings: read-out: Minimum Inhibitory Concentration
Protocol: as §1

[8] = tested on: Pseudomonas aeruginosa BMH #10; settings: read-out: Minimum Inhibitory Concentration
Protocol: as §1

[9] = tested on: Pseudomonas aeruginosa KY 8512; settings: read-out: Minimum Inhibitory Concentration
Protocol: as §1

Proteus vulgaris JJ = settings: read-out: Minimum Inhibitory Concentration
Protocol: as §1

[10] = tested on: Pseudomonas aeruginosa 27853; settings: read-out: Minimum Inhibitory Concentration
Protocol: as §1

Serratia marcescens 4003 = settings: read-out: Minimum Inhibitory Concentration
Protocol: as §1

[11] = tested on: Escherichia coli BL 3676(Res); settings: read-out: Minimum Inhibitory Concentration
Protocol: as §1

[12] = tested on: Enterobacter aerogenes 13048; settings: read-out: Minimum Inhibitory Concentration
Protocol: as §1

[13] = Escherichia coli Juhl, agar dilution, 37° C., 24 hours
[14] = Salmonella typhimurium Ed #9, agar dilution, 37° C., 24 hours
[15] = Staphyloccocus aureus Smith, agar dilution, 37° C., 24 hours
[16] = Proteus mirabilis Fin. #9, agar dilution, 37° C., 24 hours
[17] = Streptoccocus faecalis 10541, agar dilution, 37° C., 24 hours
[18] = Klebsiella pneumoniae 10031, agar dilution, 37° C., 24 hours
[19] = Pseudomonas aeruginosa 209, agar dilution, 37° C., 24 hours
[20] = Providencia 1577, agar dilution, 37° C., 24 hours
[21] = KY8516, Pseudomonas aeruginosa KY 8516, agar dilution, 37° C., 24 hours
[22] = Pseudomonas aeruginosa BMH #10, agar dilution, 37° C., 24 hours
[23] = Pseudomonas aeruginosa, KY8512, 24 h
[24] = Proteus vulgaris JJ, agar dilution, 37° C., 24 hours
[25] = Pseudomonas aeruginosa, 27853, 24 h
[26] = Serratia marcescens 4003, agar dilution, 37° C., 24 hours
[27] = Escherichia coli BL 3676(Res), agar dilution, 37° C., 24 hours
[28] = Klebsiella aerogenes, Enterobacter aerogenes 13048, agar dilution, 37° C., 24 hours
[29] = KY8512, Pseudomonas aeruginosa KY 8512, agar dilution, 37° C., 24 hours

| Compound | MIC (Escherichia coli Juhl; [13]) | MIC [1, 14] | MIC [2, 15] | MIC [3, 16] | MIC [4, 17] | MIC [5, 18] | MIC [6, 19] | MIC (Providencia 1577; [20]) | MIC (Shigella sonnei 9290) | MIC [7, 21] | MIC [8, 22] | MIC [9, 23] | MIC (Proteus vulgaris JJ; [24]) | MIC [10, 25] | MIC (Serratia marcescens 4003; [26]) | MIC [11, 27] | MIC [12, 28] | MIC [9, 29] | MIC ([11]; Escherichia coli, 24 h) | also measured |
| --- | --- | --- | --- | --- | --- | --- | --- | --- | --- | --- | --- | --- | --- | --- | --- | --- | --- | --- | --- | --- |
| COC1CC(N)C(OC2OC(C(C)N)CCC2N)C(O)C1N(C)C(=O)CN (stereo not shown) [2-Deoxyfortimicin A . 4 HCl, 2-Deoxyfortimicin A tetrahydrochloride] | 6.2 µg/mL | 1.56 µg/mL | 0.78 µg/mL | 6.2 µg/mL | 50 µg/mL | 1.56 µg/mL | 100 µg/mL | 3.1 µg/mL | 12.5 µg/mL | 50 µg/mL | 0.78 µg/mL | 12.5 µg/mL | 3.1 µg/mL | 12.5 µg/mL | 3.1 µg/mL | 25 µg/mL | 3.1 µg/mL | – | – | – |
| CC(N)C1CCC(N)C(OC2C(N)C(O)C(O)C(N(C)C(=O)CN)C2O)O1 (stereo not shown) [3-O-Demethylfortimicin A . 4HCl, 3-O-demethylfortimicin A tetrahydrochloride] | 2.1 µg/mL | 1.1 µg/mL | 0.54 µg/mL | 2.1 µg/mL | 17 µg/mL | 1.1 µg/mL | 69 µg/mL | 1.1 µg/mL | 4.3 µg/mL | 69 µg/mL | 0.27 µg/mL | – | 2.1 µg/mL | – | 4.3 µg/mL | 8.6 µg/mL | 2.1 µg/mL | 2.1 µg/mL | – | – |
| COC1C(O)C(N)C(OC2OC(C(C)N)CCC2N)C(O)C1N(C)C(=O)CN (stereo not shown) [Fortimicin A . 4HCl, fortimicin A tetrahydrochloride] | – | – | – | – | – | – | – | – | 12.5 µg/mL | – | – | 12.5 µg/mL | – | 12.5 µg/mL | – | – | – | – | 25 µg/mL | MIC (Escherichia coli Juhl; Escherichia coli, 24 h): 6.2 µg/mL; MIC ([1]; TYPHIMURIUM, 24 h): 1.56 µg/mL; MIC ([2]; 24 h): 0.78 µg/mL; MIC ([3]; Proteus mirabilis, 24 h): 6.2 µg/mL; MIC ([4]; 24 h): 50 µg/mL; MIC ([5]; Klebsiella pneumoniae, 10031, 24 h): 3.1 µg/mL; MIC ([6]; Pseudomonas aeruginosa, 209, 24 h): 100 µg/mL; MIC (Providencia 1577; Providencia, 1577, 24 h): 6.2 µg/mL; MIC ([7]; Pseudomonas aeruginosa, KY8516, 24 h): 100 µg/mL; MIC ([8]; Pseudomonas aeruginosa, 24 h): 0.78 µg/mL; MIC (Proteus vulgaris JJ; Proteus vulgaris, 24 h): 3.1 µg/mL; MIC (Serratia marcescens 4003; Serratia marcescens, 4003, 24 h): 3.1 µg/mL; MIC ([12]; Klebsiella aerogenes, 13048, 24 h): 3.1 µg/mL |
| CC(N)C1CCC(N)C(OC2C(N)CC(O)C(N(C)C(=O)CN)C2O)O1 (stereo not shown) [2-Deoxy-3-O-demethylfortimicin A . 4HCl, 2-Deoxy-3-O-Demethylfortimicin A tetrahydrochloride] | 6.2 µg/mL | 1.56 µg/mL | 0.39 µg/mL | 3.1 µg/mL | 50 µg/mL | 3.1 µg/mL | 100 µg/mL | 1.56 µg/mL | 12.5 µg/mL | 100 µg/mL | 0.78 µg/mL | – | 3.1 µg/mL | – | 3.1 µg/mL | – | 3.1 µg/mL | 3.1 µg/mL | 12.5 µg/mL | MIC ([10]; Pseudomonas aeruginosa 27853, agar dilution, 37° C., 24 hours): 6.2 µg/mL |
